Measurements from patent US9527869B2, “Indolizine derivatives as phoshoinositide 3-kinases inhibitors” (CHIESI FARMACEUTICI S.P.A., priority 2014, dated 2016).

Assays:
Format in all cases: biochemical
PI3Kα = target: T1, PI3Kα (Homo sapiens, UniProt P42336); experiment: In vitro determination of the PI3K enzyme inhibitory activity in the cell free assay (ADP-Glo Kinase Assay), PI3Kα; details: ATP 50 μM, read-out: PI3K alpha inhibition
T1 construct: purchased Millipore Ltd (Billerica, Mass.)
Procedure, shortened: (§1)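 Human recombinant PI3K isoforms with PI/PS lipid substrates (50 μM in 2× buffer, Tris pH 7.5, DTT) were run 60 min at room temperature. Final ATP was 50 μM for α, 100 μM for β, 30 μM for γ and 80 μM for δ. ADP formation was read by ADP-Glo luminescence, and IC50 came from a four-parameter logistic fit.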

PI3Kβ = target: T2, PI3Kβ (Homo sapiens, UniProt P42338); experiment: In vitro determination of the PI3K enzyme inhibitory activity in the cell free assay (ADP-Glo Kinase Assay), PI3Kβ; details: ATP 100 μM, read-out: PI3K beta inhibition
T2 construct: purchased Millipore Ltd (Billerica, Mass.)
Procedure, shortened: as §1

PI3Kγ = target: T3, PI3Kγ (Homo sapiens, UniProt P48736); experiment: In vitro determination of the PI3K enzyme inhibitory activity in the cell free assay (ADP-Glo Kinase Assay), PI3Kγ; details: ATP 30 μM, read-out: PI3K gamma inhibition
T3 construct: purchased Millipore Ltd (Billerica, Mass.)
Procedure, shortened: as §1

PI3Kδ = target: T4, PI3Kδ (Homo sapiens, UniProt O00329); experiment: In vitro determination of the PI3K enzyme inhibitory activity in the cell free assay (ADP-Glo Kinase Assay), PI3Kδ; details: ATP 80 μM, read-out: PI3K delta inhibition
T4 construct: purchased Millipore Ltd (Billerica, Mass.)
Procedure, shortened: as §1

T4 sequence (O00329 whole entry): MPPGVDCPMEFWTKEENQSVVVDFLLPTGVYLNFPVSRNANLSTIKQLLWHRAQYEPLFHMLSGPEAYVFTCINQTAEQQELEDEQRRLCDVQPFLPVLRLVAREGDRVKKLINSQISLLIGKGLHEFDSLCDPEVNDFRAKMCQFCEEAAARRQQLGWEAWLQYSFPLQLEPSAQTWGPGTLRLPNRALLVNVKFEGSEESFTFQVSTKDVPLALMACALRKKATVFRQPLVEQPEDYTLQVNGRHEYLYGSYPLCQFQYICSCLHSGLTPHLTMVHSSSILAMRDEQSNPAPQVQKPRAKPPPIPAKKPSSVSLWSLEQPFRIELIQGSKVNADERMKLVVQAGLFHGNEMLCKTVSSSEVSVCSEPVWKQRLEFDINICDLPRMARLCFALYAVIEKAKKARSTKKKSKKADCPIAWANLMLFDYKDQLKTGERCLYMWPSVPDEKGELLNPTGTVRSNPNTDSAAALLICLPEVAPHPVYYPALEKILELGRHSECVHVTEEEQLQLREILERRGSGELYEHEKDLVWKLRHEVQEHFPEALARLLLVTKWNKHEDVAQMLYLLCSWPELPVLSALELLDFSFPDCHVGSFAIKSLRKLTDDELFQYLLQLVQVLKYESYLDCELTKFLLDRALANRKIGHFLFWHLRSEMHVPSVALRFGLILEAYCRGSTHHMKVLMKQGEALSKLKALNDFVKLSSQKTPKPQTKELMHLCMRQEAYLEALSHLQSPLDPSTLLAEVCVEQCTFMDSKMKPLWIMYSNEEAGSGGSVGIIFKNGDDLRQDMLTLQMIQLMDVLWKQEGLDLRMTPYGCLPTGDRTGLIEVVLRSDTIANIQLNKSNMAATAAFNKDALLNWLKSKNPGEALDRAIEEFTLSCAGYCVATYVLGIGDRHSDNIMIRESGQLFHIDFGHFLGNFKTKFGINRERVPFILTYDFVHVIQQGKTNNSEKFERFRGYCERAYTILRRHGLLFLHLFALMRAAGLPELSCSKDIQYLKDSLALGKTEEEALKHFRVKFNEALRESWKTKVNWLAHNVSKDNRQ
T4 sequence (P27986 whole entry partner): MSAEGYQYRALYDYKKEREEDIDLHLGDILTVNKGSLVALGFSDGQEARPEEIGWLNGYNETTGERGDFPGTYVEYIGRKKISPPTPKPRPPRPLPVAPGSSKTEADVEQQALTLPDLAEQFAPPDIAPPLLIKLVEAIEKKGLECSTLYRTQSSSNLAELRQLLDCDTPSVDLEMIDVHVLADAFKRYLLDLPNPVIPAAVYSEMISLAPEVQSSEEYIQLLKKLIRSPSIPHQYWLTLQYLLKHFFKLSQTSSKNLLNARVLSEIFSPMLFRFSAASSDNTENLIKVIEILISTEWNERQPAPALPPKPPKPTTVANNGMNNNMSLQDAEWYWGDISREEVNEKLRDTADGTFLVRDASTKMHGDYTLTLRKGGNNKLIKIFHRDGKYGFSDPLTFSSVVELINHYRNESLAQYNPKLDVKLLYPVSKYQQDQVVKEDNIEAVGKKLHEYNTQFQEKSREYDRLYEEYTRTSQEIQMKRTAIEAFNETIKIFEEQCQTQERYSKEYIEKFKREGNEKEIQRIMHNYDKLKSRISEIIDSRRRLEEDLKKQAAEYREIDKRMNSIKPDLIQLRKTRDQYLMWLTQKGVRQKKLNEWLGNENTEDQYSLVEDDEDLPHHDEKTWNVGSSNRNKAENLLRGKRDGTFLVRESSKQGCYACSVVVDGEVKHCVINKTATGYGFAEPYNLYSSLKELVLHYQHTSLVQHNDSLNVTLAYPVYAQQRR
T1 sequence (P42336 whole entry): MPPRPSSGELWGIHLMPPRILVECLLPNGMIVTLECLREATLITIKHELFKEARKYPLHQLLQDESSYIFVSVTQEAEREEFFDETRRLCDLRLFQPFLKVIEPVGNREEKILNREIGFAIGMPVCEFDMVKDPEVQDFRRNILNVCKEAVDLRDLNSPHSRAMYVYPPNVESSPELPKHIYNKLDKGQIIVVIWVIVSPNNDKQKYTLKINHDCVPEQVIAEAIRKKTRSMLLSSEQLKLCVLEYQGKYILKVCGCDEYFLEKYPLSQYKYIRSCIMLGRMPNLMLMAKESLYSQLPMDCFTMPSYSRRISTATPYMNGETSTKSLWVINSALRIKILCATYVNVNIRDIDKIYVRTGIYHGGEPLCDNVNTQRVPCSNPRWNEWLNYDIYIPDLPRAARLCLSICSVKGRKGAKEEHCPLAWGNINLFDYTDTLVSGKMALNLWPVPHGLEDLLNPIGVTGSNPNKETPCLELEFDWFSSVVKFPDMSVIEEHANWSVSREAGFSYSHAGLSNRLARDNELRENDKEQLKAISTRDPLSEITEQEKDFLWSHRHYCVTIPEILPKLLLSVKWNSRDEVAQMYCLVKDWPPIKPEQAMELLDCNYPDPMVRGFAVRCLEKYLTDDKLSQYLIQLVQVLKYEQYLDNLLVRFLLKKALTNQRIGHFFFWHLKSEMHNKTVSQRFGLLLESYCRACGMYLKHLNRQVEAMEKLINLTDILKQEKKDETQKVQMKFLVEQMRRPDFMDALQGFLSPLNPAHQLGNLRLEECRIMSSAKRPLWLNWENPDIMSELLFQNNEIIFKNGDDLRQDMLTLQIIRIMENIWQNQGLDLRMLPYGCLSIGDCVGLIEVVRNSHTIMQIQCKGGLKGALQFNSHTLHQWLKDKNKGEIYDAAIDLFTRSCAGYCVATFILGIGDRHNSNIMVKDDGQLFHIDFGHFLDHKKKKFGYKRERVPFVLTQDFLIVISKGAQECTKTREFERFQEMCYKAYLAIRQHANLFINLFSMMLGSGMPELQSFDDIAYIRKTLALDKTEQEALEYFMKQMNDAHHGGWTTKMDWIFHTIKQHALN
T1 sequence (P27986 whole entry partner): as the sequence (P27986 whole entry partner) above
T3 sequence (P48736 whole entry): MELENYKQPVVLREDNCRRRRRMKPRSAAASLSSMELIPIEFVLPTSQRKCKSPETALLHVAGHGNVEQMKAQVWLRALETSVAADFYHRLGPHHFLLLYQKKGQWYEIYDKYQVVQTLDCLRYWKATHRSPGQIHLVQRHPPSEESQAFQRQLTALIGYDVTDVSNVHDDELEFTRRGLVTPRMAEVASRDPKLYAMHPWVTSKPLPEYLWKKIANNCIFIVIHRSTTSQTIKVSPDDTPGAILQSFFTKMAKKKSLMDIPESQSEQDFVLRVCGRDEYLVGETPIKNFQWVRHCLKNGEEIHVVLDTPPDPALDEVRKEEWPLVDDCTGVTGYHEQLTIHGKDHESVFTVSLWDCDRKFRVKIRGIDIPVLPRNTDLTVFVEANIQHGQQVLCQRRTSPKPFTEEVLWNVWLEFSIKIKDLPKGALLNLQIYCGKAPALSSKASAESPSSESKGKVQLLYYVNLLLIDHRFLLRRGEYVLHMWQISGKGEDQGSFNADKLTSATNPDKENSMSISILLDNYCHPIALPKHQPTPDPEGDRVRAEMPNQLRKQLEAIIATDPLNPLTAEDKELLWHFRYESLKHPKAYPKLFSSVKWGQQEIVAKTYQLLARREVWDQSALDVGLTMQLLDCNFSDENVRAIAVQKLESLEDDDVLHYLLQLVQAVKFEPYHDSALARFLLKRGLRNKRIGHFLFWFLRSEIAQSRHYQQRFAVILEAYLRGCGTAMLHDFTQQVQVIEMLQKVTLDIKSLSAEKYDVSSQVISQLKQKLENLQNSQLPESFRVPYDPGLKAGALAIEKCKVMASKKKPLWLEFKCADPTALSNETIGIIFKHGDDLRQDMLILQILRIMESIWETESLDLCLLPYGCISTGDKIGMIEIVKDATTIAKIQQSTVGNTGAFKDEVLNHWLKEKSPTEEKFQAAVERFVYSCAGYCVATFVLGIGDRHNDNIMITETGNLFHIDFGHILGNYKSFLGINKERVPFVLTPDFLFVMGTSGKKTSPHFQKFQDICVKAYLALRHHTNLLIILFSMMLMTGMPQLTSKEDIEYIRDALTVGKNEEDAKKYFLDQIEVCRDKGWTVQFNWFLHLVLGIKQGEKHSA
T2 sequence (P42338 whole entry): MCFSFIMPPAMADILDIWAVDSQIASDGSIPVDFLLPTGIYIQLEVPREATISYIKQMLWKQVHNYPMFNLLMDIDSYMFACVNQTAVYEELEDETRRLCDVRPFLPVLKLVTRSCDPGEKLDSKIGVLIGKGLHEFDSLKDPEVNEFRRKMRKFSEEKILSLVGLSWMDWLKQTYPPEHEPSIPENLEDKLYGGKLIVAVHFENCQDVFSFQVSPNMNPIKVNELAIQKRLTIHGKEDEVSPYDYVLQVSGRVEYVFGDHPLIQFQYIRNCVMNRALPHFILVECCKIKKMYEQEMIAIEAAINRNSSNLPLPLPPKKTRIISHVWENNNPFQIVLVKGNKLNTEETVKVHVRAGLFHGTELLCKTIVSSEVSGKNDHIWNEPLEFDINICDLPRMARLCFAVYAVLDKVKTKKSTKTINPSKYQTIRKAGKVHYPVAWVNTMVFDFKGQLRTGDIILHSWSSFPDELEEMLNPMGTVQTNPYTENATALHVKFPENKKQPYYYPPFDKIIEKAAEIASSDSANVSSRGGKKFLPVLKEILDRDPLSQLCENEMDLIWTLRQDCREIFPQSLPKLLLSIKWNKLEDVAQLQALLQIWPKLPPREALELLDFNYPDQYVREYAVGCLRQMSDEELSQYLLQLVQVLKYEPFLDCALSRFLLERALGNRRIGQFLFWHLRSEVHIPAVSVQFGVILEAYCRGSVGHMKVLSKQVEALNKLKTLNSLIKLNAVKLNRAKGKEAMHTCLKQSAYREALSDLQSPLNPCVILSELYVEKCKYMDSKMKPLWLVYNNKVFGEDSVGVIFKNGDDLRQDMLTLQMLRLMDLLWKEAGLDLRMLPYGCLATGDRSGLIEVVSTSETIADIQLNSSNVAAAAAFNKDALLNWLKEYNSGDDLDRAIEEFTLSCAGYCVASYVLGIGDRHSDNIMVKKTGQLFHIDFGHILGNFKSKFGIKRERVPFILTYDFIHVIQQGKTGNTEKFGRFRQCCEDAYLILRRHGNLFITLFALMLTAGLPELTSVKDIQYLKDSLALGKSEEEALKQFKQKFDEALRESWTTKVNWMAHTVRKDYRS
T2 sequence (P27986 whole entry partner): as the sequence (P27986 whole entry partner) above

Structure (SMILES) | IC50 (PI3Kα) | IC50 (PI3Kβ) | IC50 (PI3Kγ) | IC50 (PI3Kδ)
c1ccc(-c2c(CNc3ncnc4[nH]cnc34)cn3ccccc23)nc1 [Example 20, N-{[1-(pyridin-2-yl)indolizin-2-yl]methyl}-9H-purin-6-amine] | > 1 µM | > 1 µM | > 1 µM | 0.01 to 1 µM
Cc1ccccc1-c1c(CNc2ncnc(N)c2C#N)cc2ccccn12 [Example 26, 4-amino-6-({[3-(2-methylphenyl)indolizin-2-yl]methyl}amino)pyrimidine-5-carbonitrile] | > 1 µM | > 1 µM | > 1 µM | 0.01 to 1 µM
CC(c1cc2ccccn2c1-c1ccccn1)n1nc(-c2cc(F)cc(S(N)(=O)=O)c2)c2c(N)ncnc21 (stereo not drawn) [Example 75, 3-(4-amino-1-{1-[3-(pyridin-2-yl)indolizin-2-yl]ethyl}-1H-pyrazolo[3,4-d]pyrimidin-3-yl)-5-fluorobenzene-1-sulfonamide] | > 1 µM | > 1 µM | > 1 µM | > 1 µM
CC(c1cc2ccccn2c1-c1ccccn1)n1nc(-c2cc(N)cc(F)c2)c2c(N)ncnc21 (stereo not drawn) [Example 76, 3-(3-amino-5-fluorophenyl)-1-{1-[3-(pyridin-2-yl)indolizin-2-yl]ethyl}-1H-pyrazolo[3,4-d]pyrimidin-4-amine] | > 1 µM | 0.01 to 1 µM | > 1 µM | 0.01 to 1 µM
CC(Nc1ncnc(N)c1C#N)c1cc2ccccn2c1-c1ccccc1 (stereo not drawn) [Example 32, 4-amino-6-{[1-(3-phenylindolizin-2-yl)ethyl]amino}pyrimidine-5-carbonitrile] | > 1 µM | > 1 µM | > 1 µM | 0.01 to 1 µM
CC(c1cc2ccccn2c1-c1ccc(CN2CCOCC2)cc1)n1nc(-c2cc(O)cc(F)c2)c2c(N)ncnc21 (stereo not drawn) [Example 91, 3-[4-amino-1-(1-{3-[4-(morpholin-4-ylmethyl)phenyl]indolizin-2-yl}ethyl)-1H-pyrazolo[3,4-d]pyrimidin-3-yl]-5-fluorophenol] | > 1 µM | > 1 µM | > 1 µM | 0.01 to 1 µM
Nc1ncnc2c1ncn2Cc1cc2ccccn2c1-c1ccccc1F [Example 6, 9-{[3-(2-fluorophenyl)indolizin-2-yl]methyl}-9H-purin-6-amine] | > 1 µM | > 1 µM | > 1 µM | > 1 µM
N#Cc1c(N)ncnc1NCc1cc2ccccn2c1 [Example 31, 4-amino-6-[(indolizin-2-ylmethyl)amino]pyrimidine-5-carbonitrile] | > 1 µM | > 1 µM | > 1 µM | 0.01 to 1 µM
C[C@@H](c1cc2ccccn2c1-c1ccccn1)n1nc(-c2cc(O)cc(F)c2)c2c(N)ncnc21 (single isomer, unassigned) [Example 81, 3-(4-amino-1-{1-[3-(pyridin-2-yl)indolizin-2-yl]ethyl}-1H-pyrazolo[3,4-d]pyrimidin-3-yl)-5-fluorophenol] | > 1 µM | > 1 µM | > 1 µM | 0.01 to 1 µM
CC(c1cc2ccccn2c1-c1ccccn1)n1nc(C#CCO)c2c(N)ncnc21 (stereo not drawn) [Example 102, 3-(4-amino-1-{1-[3-(pyridin-2-yl)indolizin-2-yl]ethyl}-1H-pyrazolo[3,4-d]pyrimidin-3-yl)prop-2-yn-1-ol] | > 1 µM | > 1 µM | > 1 µM | 0.01 to 1 µM
Nc1ncnc2c1ncn2Cc1cc2ccccn2c1-c1ccccc1 [Example 1, 9-[(3-phenylindolizin-2-yl)methyl]-9H-purin-6-amine] | > 1 µM | > 1 µM | > 1 µM | > 1 µM
Cc1c(C(C)n2nc(-c3cc(O)cc(F)c3)c3c(N)ncnc32)c(-c2ccccn2)n2ccccc12 (stereo not drawn) [Example 89, 3-(4-amino-1-{1-[1-methyl-3-(pyridin-2-yl)indolizin-2-yl]ethyl}-1H-pyrazolo[3,4-d]pyrimidin-3-yl)-5-fluorophenol] | 0.01 to 1 µM | 0.01 to 1 µM | 0.01 to 1 µM | 0.01 to 1 µM
CC(Nc1ncnc(N)c1C#N)c1cc2ccccn2c1-c1cccnc1 (stereo not drawn) [Example 34, 4-amino-6-({1-[3-(pyridin-3-yl)indolizin-2-yl]ethyl}amino)pyrimidine-5-carbonitrile] | > 1 µM | 0.01 to 1 µM | 0.01 to 1 µM | 0.01 to 1 µM

Other lines, results leading:

IC50 (PI3Kα) | IC50 (PI3Kβ) | IC50 (PI3Kγ) | IC50 (PI3Kδ) | Structure (SMILES)
> 1 µM | > 1 µM | > 1 µM | < 0.01 µM | C[C@H](c1c(C#N)c2ccccn2c1-c1cccc(CN(C)C)c1)n1nc(-c2cc(O)cc(F)c2)c2c(N)ncnc21 (single isomer, unassigned) [Example 127b, 2-{1-[4-amino-3-(3-fluoro-5-hydroxyphenyl)-1H-pyrazolo[3,4-d]pyrimidin-1-yl]ethyl}-3-{3-[(dimethylamino)methyl]phenyl}indolizine-1-carbonitrile]
> 1 µM | 0.01 to 1 µM | 0.01 to 1 µM | < 0.01 µM | Cc1cc(-c2c(C(C)n3nc(-c4cc(O)cc(F)c4)c4c(N)ncnc43)cc3ccccn23)ccn1 (stereo not drawn) [Example 106, 3-(4-amino-1-{1-[3-(2-methylpyridin-4-yl)indolizin-2-yl]ethyl}-1H-pyrazolo[3,4-d]pyrimidin-3-yl)-5-fluorophenol]
> 1 µM | 0.01 to 1 µM | > 1 µM | 0.01 to 1 µM | CC(c1cc2ccccn2c1-c1ccc(OCCC2CCN(C)CC2)nn1)n1nc(-c2cc(O)cc(F)c2)c2c(N)ncnc21 (stereo not drawn) [Example 140, 3-{4-amino-1-[1-(3-{6-[2-(1-methylpiperidin-4-yl)ethoxy]pyridazin-3-yl}indolizin-2-yl)-ethyl]-1H-pyrazolo[3,4-d]pyrimidin-3-yl}-5-fluorophenol]
0.01 to 1 µM | 0.01 to 1 µM | 0.01 to 1 µM | < 0.01 µM | CC(c1cc2ccccn2c1N1CCN(C)CC1=O)n1nc(-c2cc(O)cc(F)c2)c2c(N)ncnc21 (stereo not drawn) [Example 132, 1-(2-{1-[4-amino-3-(3-fluoro-5-hydroxyphenyl)-1H-pyrazolo[3,4-d]pyrimidin-1-yl]-ethyl}indolizin-3-yl)-4-methylpiperazin-2-one]
> 1 µM | 0.01 to 1 µM | 0.01 to 1 µM | < 0.01 µM | CC(c1cc2ccccn2c1-c1csc(CN2CCOCC2)n1)n1nc(-c2cc(O)cc(F)c2)c2c(N)ncnc21 (stereo not drawn) [Example 130, 3-[4-amino-1-(1-{3-[2-(morpholin-4-ylmethyl)-1,3-thiazol-4-yl]indolizin-2-yl}ethyl)-1H-pyrazolo-[3,4-d]pyrimidin-3-yl]-5-fluorophenol]
0.01 to 1 µM | 0.01 to 1 µM | 0.01 to 1 µM | < 0.01 µM | CC(c1cc2ccccn2c1-c1cc(CN2CCN(C)CC2)ccn1)n1nc(-c2cc(O)cc(F)c2)c2c(N)ncnc21 (stereo not drawn) [Example 116, 3-{4-amino-1-[1-(3-{4-[(4-methylpiperazin-1-yl)methyl]pyridin-2-yl}indolizin-2-yl)ethyl]-1H-pyrazolo-[3,4-d]pyrimidin-3-yl}-5-fluorophenol]
> 1 µM | > 1 µM | > 1 µM | 0.01 to 1 µM | CC(c1cc2ccccn2c1-c1ccn(CCN(C)C)c(=O)c1)n1nc(-c2cc(O)cc(F)c2)c2c(N)ncnc21 (single isomer, unassigned) [Example 133a, 4-(2-{1-[4-amino-3-(3-fluoro-5-hydroxyphenyl)-1H-pyrazolo[3,4-d]pyrimidin-1-yl]ethyl}indolizin-3-yl)-1-[2-(dimethylamino)ethyl]-1,2-dihydropyridin-2-one]
0.01 to 1 µM | 0.01 to 1 µM | 0.01 to 1 µM | 0.01 to 1 µM | CC(c1cc2ccccn2c1CN1C[C@H]2CN(C)C[C@H]2C1)n1nc(-c2cc(O)cc(F)c2)c2c(N)ncnc21 (stereo partly drawn) [Example 145, 3-{1-[1-(3-{[(3aR,6aS)-5-methyl-octahydropyrrolo[3,4-c]pyrrol-2-yl]methyl}indolizin-2-yl)ethyl]-4-amino-1H-pyrazolo[3,4-d]pyrimidin-3-yl}-5-fluorophenol]
